Measured values published in patent US10426755B2, “Methods for inhibiting cancer cells” (Chang Gung Memorial Hospital, Chiayi, priority 2015, dated 2019).
Entries after “also recorded” stand apart in the source; their conditions may differ.

Key:
Type in all cases: cell-based
[1] = test system: ARK1 endometrial cancer cells; experiment: XTT proliferation assay, ARK1; conditions: 5, 10 and 20 μM DT, 1-2 days, FIG. 4
Protocol: (§1) The prostate cancer cells were plated at a density of 10^3 or 3×10^3 per well, in a 96-well plate, in a medium containing 10% Fetal bovine serum (FBS) (Gibco®, commercially available from Life Technologies, USA). Once the prostate cancer cells were attached to the culture dish, the 10% FBS medium was replaced with a second 10% FBS medium and each of the prostate cancer cell line was treated with 1, 5, and 10 μM of DT respectively for 1-2 days. The absorbance was measured using XTT assay kit (commercially available from Roche, Switzerland) at 492 nm using an ELISA reader (Bio-Rad Laboratories, USA).
(§2) An in vitro evaluation of the effect of DT on endometrial cancer cells was performed. The endometrial cancer cell lines, ARK1 and ARK2, were provided by Dr. T H Wang at Chang Gung Meorial Hospital, Linkou, Taiwan)
(§3) The endometrial cancer cells were cultured and plated according to the steps in Example 1 and each of the endometrial cancer cell line was treated with 0 (control), 5, 10 and 20 μM of DT, respectively for 1-2 days. The absorbance was measured using XTT assay kit at 492 nm using an ELISA reader.

[2] = test system: prostate cancer cells (hormone therapy-resistant PC3, DU145 and LNCaP); experiment: Annexin V/PI flow cytometry apoptosis/necrosis, prostate cancer cells; conditions: 10 or 20 μM DT, 24-48 hours, vs PBS and DMSO vehicle (CT); time dependent; FIG. 6
Protocol: The effect of DT on metastatic prostate cancer cells (hormone therapy-resistant PC3, DU145 and LNCaP); lung cancer cells (A549 and chemotherapy-resistant/metastatic H460); and breast cancer cells (MCF-7, tamoxifen-resistant MCF7 and MDA MB-231) was assessed.
1×10^6 Cancer cells were seeded in a 100-mm plate and cultured overnight. The cancer cells were treated with phosphate buffered saline (PBS), a Dimethyl sulfoxide (DMSO) vehicle (CT), 10 or 20 μM of DT for 24-48 hours, then collected and washed with cold PBS. The supernatant was removed by centrifugation and resuspended in FITC Annexin V binding buffer and Propidium iodide (PI) (Annexin V-FITC Apoptosis Detection Kit, commercially available from Strong Biotech Corporation, Taiwan). The suspended cancer cells were stained at room temperature, in the dark for 15 min and analyzed by the BD FACSCanto™ flow cytometry (Becton Dickinson, USA). The amount of early apoptosis, late apoptosis, and necrosis was measured as the percentage of annexin-V positive/PI negative (Q4 in the FACS images), annexin-V positive/PI positive (Q2 in the FACS images), and annexin-V negative/PI positive cells (Q1 in the FACS images), respectively. Normal cells are in […] of the FACS images.

[3] = test system: CCL2 in hormone therapy resistant and metastatic PC3 prostate cancer cells; experiment: CCL2 ELISA of culture medium, PC3; conditions: 5 or 10 μM DT, 24 hours, vs DMSO, FIG. 14 (d)
Protocol: It has been reported that increased CCL2 expression enhances cancer cell metastasis via macrophage recruitment. The effect of DT on CCL2 expression in RAW264.7 macrophages, THP1 monocytes and prostate cancer cells (metastatic DU145 and hormone therapy resistant and metastatic PC3) was examined by treating the cells with DMSO (control), 5 or 10 μM DT for 24 hours.
The culture medium was collected and the concentration of CCL2 was measured using ELISA assay.

[4] = test system: γ-H2AX and phosphorylated-ATM in A549 and chemotherapy-resistant/metastatic H460 lung cancer cells; experiment: Western blot of DNA damage response proteins, lung cancer cells; conditions: various concentrations of DT, vs control vehicle; dose dependent; FIG. 10 (a)-(b)
Protocol: (§4) An in vitro evaluation on the damage effect of DT on cancer cells was performed, using prostate cancer cells (metastatic LNCaP and metastatic DU145, hormone therapy resistant and metastatic PC3 and 22RV1) and lung cancer cells (A549 and chemotherapy-resistant/metastatic H460).
(§5) Cancer cells were treated with a control vehicle, dihydrotestosterone (DHT), and various concentrations of DT between 6 to 24 hours. Cellular extracts of treated cancer cells were analyzed using Western Blot.

[5] = test system: CCL2 in THP1 cells/22RV1 co-culture; experiment: CCL2 ELISA, THP1/22RV1 co-culture; conditions: DT-treated monocyte/22RV1 co-culture medium; 5 or 10 μM DT, 24 hours; FIG. 15 (b)
Protocol: As illustrated in Example 10, the production of CCL2 was inhibited by DT in both prostate cancer cells and macrophage, the effect of DT on monocyte/cancer cell co-culture and macrophage/cancer cell co-culture was examined using the invasion assay described in Example 9. • (a) THP1 monocytes, Raw264.7 macrophage, monocyte/prostate cancer co-culture and macrophage/prostate cancer co-culture were treated with a vehicle (DMSO), 5 or 10 μM DT for 24 hours, the cultured medium was collected and placed into the lower chamber of a transwell plate. • (b) Prostate cancer cells (PC3, DU145 and 22RV1) were placed in the cell invasion assay). The level of CCL2 in the invasion assay was measured by ELIZA method.

[6] = test system: γ-H2AX, phosphorylated-ATM, phosphorylated-p53, PUMA, BAX, caspase-3, caspase-9 and PARP in LNCaP and DU145 prostate cancer cells; experiment: Western blot of cell damage and cell death proteins, prostate cancer cells; conditions: various concentrations of DT, 6 to 24 hours, vs control vehicle; dose and time dependent; FIG. 9 (a)-(g)
Protocol: as §4, §5

[7] = test system: skp2 and downstream genes in A549 and H460 lung cancer cells; experiment: skp2 and downstream gene mRNA expression, lung cancer cells; conditions: various concentrations of DT vs DMSO, FIG. 10 (c)-(f)
Protocol: It has been reported that skp2 plays an important role in the metastasis of cancer cells. An in vitro evaluation of the effect of DT on prostate cancer cell metastasis was performed, by measuring the mRNA expression of skp2 in the following prostate cancer cell lines: meatstatic DU145 cells (Panels i-j of FIG. 9), hormone therapy resistant and metastatic PC3 cells (Panel h of FIG. 9), and 22RV1 cells (Panels k-l of FIG. 9), A549 lung cancer cells (Panels (c)-(e) of FIG. 10), chemotherapy-resistant/metastatic H460 lung cancer cells (Panels (d) and (f) of FIG. 10), HCT116 colon cancer cells (Panels (g) and (i) of FIG. 10) and MCF7-tamoxifen resistant breast cancer cells (Panels (h) and (j) of FIG. 10) […].
The cancer cells were treated with DMSO and various concentrations of DT.

[8] = test system: ARK2 endometrial cancer cells; experiment: XTT proliferation assay, ARK2; conditions: 5, 10 and 20 μM DT, 1-2 days, FIG. 4
Protocol: as §1, §2, §3

SMILES: Cc1cccc2c3c(ccc12)C(=O)C1=C(OCC1C)C3=O (stereo not shown) [DT, dihydroisotanshinone I]
- inhibition of ARK1 endometrial cancer cells [1]: effective in inhibiting ARK1 and ARK2 endometrial cancer cells
- early apoptosis, late apoptosis and necrosis, prostate cancer cells [2]: more early apoptosis, late apoptosis and necrosis; also recorded: induced prostate cancer cell apoptosis/necrosis
- production of CCL2 in PC3 prostate cancer cells [3]: effectively inhibit the production of CCL2
- DNA damage response proteins (γ-H2AX and phosphorylated-ATM), lung cancer cells [4]: increase in DNA damage response proteins (γ-H2AX and phosphorylated-ATM); also recorded: increased the DNA damage response proteins (γ-H2AX, phosphorylated-ATM)
- concentration of CCL2 [5]: significantly reduced
- DNA damage response proteins (γ-H2AX and phosphorylated-ATM), prostate cancer cells [6]: increased
- cell cycle regulatory protein (phosphorylated-p53), prostate cancer cells [6]: increased
- cell program death proteins (PUMA, BAX, caspase-3, caspase-9 and PARP), prostate cancer cells [6]: increased
- mRNA expression of skp2 and its downstream genes, lung cancer [7]: effectively inhibit mRNA expression of skp2 and its downstream genes; also recorded: reduces skps and its downstream genes, MMP2, MMP9 and E-cadherin
- inhibition of ARK2 endometrial cancer cells [8]: effective in inhibiting ARK1 and ARK2 endometrial cancer cells
